Experimental data as given in US7125847B1, “Mechanically activated channel blocker” (priority 2000, dated 2006).
Entries after “also recorded” stand apart in the source; their conditions may differ. Where no end group is shown, it is not given here.

Key:
Format in all cases: cell-based
[1] = system: whole-cell swelling-activated currents in adult rat astrocytes; test: Whole-cell (Nystatin perforated patch) currents in adult rat astrocytes, isotonic and hypotonic swelling
Description: It is considered that part of the swelling activated currents are attributable to SACs. To illustrate this embodiment, adult rat astrocytes were cultured as described above. Whole cell current was measured by the Nystatin perforated patch. Bath saline was the same as in Example 2. Pipette saline consisted of: KCl 80 mM, K2SO4 30 mM, NaCl 10 mM, MgSO4 3 mM, CaCl20.13 mM, EGTA 0.23 mM and Hepes 10 mM, pH 7.3. Nystatin was dissolved in pipette saline to a final concentration of […]. After patch formation, access resistance was allowed to drop to ˜15 MW (uncompensated), after which the series resistance compensation was set at ˜65%, and prediction was set to ˜75%. Whole cell capacitance measurements ranged from ˜25–50 pF. Whole cell currents were monitored by either a voltage step protocol shown in FIG. 7, or by 600 ms voltage ramps. During hypotonic swelling the cell was perfused initially with isotonic saline (bath saline with 160 mM mannitol replacing 80 mM NaCl) before switching to hypotonic saline (isotonic saline minus 140 mM mannitol). The BPS-8 perfusion system was used to rapidly (<200 ms) change the bathing solution. Peak currents were measured at 3–5 ms into voltage steps.

[2] = system: stretch-activated channels (SACs); test: Outside-out patch clamp of stretch-activated channels in adult rat astrocytes
Description: This embodiment describes the effect of the peptide GsMTx-4 variant (SEQ ID NO:1) on SACs. To illustrate this, adult rat astrocytes which are known to have SACs, were used. Adult rat astrocytes were cultured according to standard methods. Briefly, activated adult astrocytes isolated from gelatin-sponge implants from adult Sprague-Dawley rat brains obtained according to the method of Langan et al. (1995, Glia, 14:174–184) were used at passage numbers 2–4. Astrocytes were maintained in DMEM, 10% fetal bovine serum and 1% Penicillin/Streptomycin and were used in experiments between 2 and 5 days after passage. Cells between passage 4 and 35 expressed SACs with the same properties Both stellate process bearing cells and flat polygonal (fibroblast-like) cells were used.
The cultured astrocytes were used for single channel and whole cell recorndings. For single channel patch clamp, patch voltage was controlled by an Axopatch 200B (Axon Instruments, Calif.) and currents were recorded directly onto computer disk via a Labmaster DMA Ver. B (Scientific Instruments, Calif.) board controlled by pClamp6-Clampex acquisition software (Axon Instruments, California). Currents were sampled at 10 KHz and low-pass filtered at 2 KHz through the 4 pole Bessel filter on the Axopatch 200B. Experimental voltage protocols were controlled by pClamp6-Clampex. All potentials are defined with respect to the extracellular surface.
Electrodes were pulled on a Model PC-84 pipette puller (Brown-Flaming Instruments, Calif.), painted with Sylgard 184 (Dow Corning Corp. Midland Mich.) and fire polished. Electrodes were filled with KCl saline (KCl 140 mM, EGTA 5 mM, MgSO4 2 mM, Hepes 10 mM, pH 7.3) and had resistances ranging from 3–8 MWBath saline consisted of NaCl 140 mM, KCl 5 mM, MgSO4 1 mM, CaCl2 1 mM, glucose 6 mM and Hepes 10 mM, pH 7.3.
Pressure and suction were applied to the pipette by a pressure clamp. Pressure values represent pressure in the pipette, i.e., the intracellular side of the membrane in outside-out patches. Suction applied to a cell-attached patch has the same sign as pressure applied to an outside-out patch. The rise time of pressure changes at the tip were determined by monitoring the rate of current change when pressure steps were applied to an electrode containing 150 mM KCl solution and placed in a water bath. The t10-90 was ˜5 ms as determined by exponential fits to the current decay. Perfusion of toxin samples was performed by a pressurized bath perfusion system BPS-8 (ALA scientific instruments, NY) with 8 separate channels.
Off-line data analysis was performed with pClamp6 analysis software and Origin 5.0. Maximal unitary channel currents were determined via Guassian fits to the peaks of all points amplitude histograms generated from records containing 1–3 channels. […] Some of these records were analyzed by determining all of the step-like changes in current during the pressure application and selecting the average maximal current level as the unitary current. The data analyzed by this method was in good agreement with the unitary current levels determined by analysis of all points amplitude histograms from single channel patches.
The outside out patches from adult astrocytes as described above were used for testing the HPLC fractions obtained in Example 1. The HPLC fractions were lyophilized, redissolved at a 1:1000 dilution and perfused onto outside out patches. […] The fraction containing the single peak in FIG. 1D was then tested for activity against SACs. […] The patch was held at −50 mV, and the pressure pulse is shown above the records.
The entire experiment is comprised of 60 pressure steps: steps 1–20 occur before GsMTx-4 application; steps 21–38 while GsMTx-4 is being perfused; steps 39–60 occur during washout. Each 500 ms pressure step was separated by 1.5 seconds at 0 pressure.
The association rate of the toxin was determined by applying GsMTx-4 to an outside-out patch while the channels were activated by stretch (FIG. 5). […]

[3] = system: MSC currents in normal rat kidney cells; test: Outside-out patch clamp of mechanosensitive channel currents in normal rat kidney cells; conditions: 5 μM
Description: NRK cell culture: Normal rat kidney cells (CCA identifier is 49F) at passages 20–25, were maintained in DMEM, 5% fetal bovine serum and 1%
Penicillin/Streptomycin. Cells were plated onto poly-L-lysine coated cover-slips, and used in experiments between 2 and 6 days after passage.
Electrophysiology: An Axopatch 200B (Axon Instruments, California) was used for patch clamping, while experimental protocols and data acquisition were controlled by Axon Instruments pClamp8 software via a Digidata 1322A acquisition system. Currents were sampled at 10 KHz and low-pass filtered at 2 KHz through the 4 pole Bessel filter on the Axopatch 200B. All potentials are defined with respect to the extracellular surface. Electrodes were pulled on a Model PC-84 pipette puller (Brown-Flaming Instruments, California), painted with Sylgard 184 (Dow Corning Corp. Midland Mich.) and fire polished. Electrodes were filled with KCl saline (KCl 140 mM, EGTA 5 mM, MgSO4 2 mM, Hepes 10 mM, pH 7.3) and had resistances ranging from 10–20 MΩ. Bath saline consisted of NaCl—140 mM, KCl—5 mM, CaCl2—2 mM, MgSO4—0.5 mM, glucose—6 mM and Hepes—10 mM, pH 7.3. Pressure and suction were applied to the pipette by a HSPC-1 pressure clamp (ALA Scientific Instruments, New York) controlled by the pClamp software. Perfusion of toxin samples was performed by a pressurized local perfusion system BPS-8 (ALA scientific instruments, NY) with 8 separate channels. Off-line data analysis was performed with Clampfit and Origin 6.1 software.

Compound: [Cl-].[Cs+] [CsCl, reference compound]
- effect on whole-cell current in isotonic saline ([1]; CsCl, hyperpolarized potentials): significant decrease in current

Compound: O=S(=O)(O)c1cc(N=C=S)ccc1C=Cc1ccc(N=C=S)cc1S(=O)(=O)O [DIDS, reference compound]
- shift in reversal potential of swelling-activated current ([1]; 50 μM DIDS, average n=6): −33 mV
- effect on swelling-activated current ([1]; 50 μM DIDS, especially at depolarized potentials): significant reduction in current

Compound: GCLEFWWKCNPNDDKCCRPKLKCSKLFKLCNFSSG (not fully specified (C-terminus); ends and bridges not checked; listed as Grammastola spatulata) [SEQ ID NO.1, 35 amino acids with C-term glycine amide]
- SAC blocking activity [2]: has SAC blocking activity

Compound: cloned: GsMTx4 liberated by thrombin from a thioredoxin fusion protein, with three extra amino acids at the N-terminus (SGMGCLEFWWKCNPNDDKCCRPKLKCSKLFKLCNFSF; ends and bridges not checked; cysteine pairing not given here)
- block of mechanosensitive channels [3]: blocked; also recorded: active in blocking SACs
- block of mechanically sensitive current ([3]; outside-out patches held at −50 mV): greater than 75%

Compound: synthetic: chemically synthesized GsMTx4 with a C-terminal phenylalanine, folded with GSH/GSSG (GCLEFWWKCNPNDDKCCRPKLKCSKLFKLCNFSF-NH2; disulfide (positions not given here); not fully specified (bridges); also: three intramolecular disulfide bonds, pairing not given here)
- block of mechanosensitive channels [3]: active in blocking SACs
- block of mechanosensitive channels ([3]; listed as synthetic peptide): blocked
